# Laboratory results published in ChEMBL document CHEMBL1157437, “Synthesis and biological activities of reveromycin A and spirofungin A derivatives” (Bioorg Med Chem Lett, 2008).
# Assays:
# NRK [1] = test: Effect on morphological reversion in src transformed NRK cells at 10 ug/mL; type: functional; conditions: Rattus norvegicus
# Osteoclast = test: Induction of apoptosis in mouse osteoclasts; type: functional
# NRK [2] = test: Effect on morphological reversion in src transformed NRK cells at 30 ug/mL; type: functional; conditions: Rattus norvegicus
# [3] = target: T1, Isoleucine--tRNA ligase, cytoplasmic (Homo sapiens, UniProt P41252); test: Inhibition of IleRS
# T1 sequence (P41252 whole entry): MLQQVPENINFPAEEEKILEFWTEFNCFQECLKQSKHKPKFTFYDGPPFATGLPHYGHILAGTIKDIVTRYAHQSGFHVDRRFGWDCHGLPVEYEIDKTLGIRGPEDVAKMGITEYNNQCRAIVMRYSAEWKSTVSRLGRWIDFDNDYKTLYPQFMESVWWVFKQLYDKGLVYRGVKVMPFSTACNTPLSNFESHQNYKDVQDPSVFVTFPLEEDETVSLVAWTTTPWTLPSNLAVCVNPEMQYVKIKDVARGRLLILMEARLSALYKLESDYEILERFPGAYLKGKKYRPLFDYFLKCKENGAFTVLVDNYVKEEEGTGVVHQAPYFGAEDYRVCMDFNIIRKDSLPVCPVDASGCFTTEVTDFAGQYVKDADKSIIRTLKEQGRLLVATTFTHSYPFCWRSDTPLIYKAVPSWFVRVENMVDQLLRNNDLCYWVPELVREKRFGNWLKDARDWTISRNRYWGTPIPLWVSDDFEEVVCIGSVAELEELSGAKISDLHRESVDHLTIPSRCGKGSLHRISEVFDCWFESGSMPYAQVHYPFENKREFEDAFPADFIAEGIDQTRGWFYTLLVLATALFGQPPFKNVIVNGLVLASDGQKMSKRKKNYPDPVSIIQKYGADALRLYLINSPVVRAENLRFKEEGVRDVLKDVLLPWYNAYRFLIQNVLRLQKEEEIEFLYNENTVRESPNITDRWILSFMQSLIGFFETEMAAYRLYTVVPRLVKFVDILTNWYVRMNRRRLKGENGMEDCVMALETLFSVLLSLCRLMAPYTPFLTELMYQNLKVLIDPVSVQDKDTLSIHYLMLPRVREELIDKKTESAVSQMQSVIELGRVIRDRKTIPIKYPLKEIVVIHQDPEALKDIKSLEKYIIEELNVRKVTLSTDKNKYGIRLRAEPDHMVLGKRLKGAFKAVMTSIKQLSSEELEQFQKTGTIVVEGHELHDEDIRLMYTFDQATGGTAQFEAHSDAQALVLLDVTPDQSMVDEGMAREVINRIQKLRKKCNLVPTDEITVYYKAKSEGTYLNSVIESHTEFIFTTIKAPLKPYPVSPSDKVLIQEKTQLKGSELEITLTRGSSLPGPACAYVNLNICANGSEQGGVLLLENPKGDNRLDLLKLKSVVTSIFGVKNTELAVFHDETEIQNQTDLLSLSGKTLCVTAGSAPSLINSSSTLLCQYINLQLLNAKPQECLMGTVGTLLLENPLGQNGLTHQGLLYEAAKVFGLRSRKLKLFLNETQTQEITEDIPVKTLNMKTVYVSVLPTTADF
# NRK [4] = test: Effect on morphological reversion in src transformed NRK cells at 100 ug/mL; type: functional; conditions: Rattus norvegicus
# NRK [5] = test: Effect on morphological reversion in src transformed NRK cells at 1 ug/mL; type: functional; conditions: Rattus norvegicus
# NRK [6] = test: Effect on morphological reversion in src transformed NRK cells at 3 ug/mL; type: functional; conditions: Rattus norvegicus
# NRK [7] = test: Effect on morphological reversion in src transformed NRK cells at 0.3 ug/mL; type: functional; conditions: Rattus norvegicus
SMILES,inhibition at 10 µg/mL (NRK [1]) [%],Activity (Osteoclast) [µg/mL],inhibition at 30 µg/mL (NRK [2]) [%],IC50 [3] [nM],inhibition at 100 µg/mL (NRK [4]) [%],inhibition at 1 µg/mL (NRK [5]) [%],inhibition at 3 µg/mL (NRK [6]) [%],inhibition at 0.3 µg/mL (NRK [7]) [%]
CCCC[C@@]1(OC(=O)CCC(=O)O)CC[C@]2(CC[C@H](C)[C@@H](C/C=C(C)/C=C/[C@H](OC(C)=O)[C@@H](C)/C=C/C(=O)O)O2)O[C@H]1/C=C/C(C)=C/C(=O)O,50,0.46,> 80,> 1420,> 80,< 10,< 10,
CCCC[C@@]1(OC(=O)CCC(=O)O)CC[C@]2(CC[C@H](C)[C@@H](C/C=C(C)/C=C/[C@H](O[Si](C)(C)C(C)(C)C)[C@@H](C)/C=C/C(=O)O)O2)O[C@H]1/C=C/C(C)=C/C(=O)O,,5.9,,> 1290,< 10,,,
"CCCC[C@@]1(OC(=O)CCC(=O)O)CC[C@]2(CC[C@H](C)[C@@H](C/C=C(C)/C=C/[C@@H](O)[C@@H](C)CCC(=O)O)O2)O[C@H]1/C=C/C(C)=C/C(=O)O [2,3-DIHYDRO-5-EPIREVEROMYCIN A]",< 10,0.82,< 10,88,50,,< 10,
CCCC[C@@]1(OC(=O)CCC(=O)O)CC[C@]2(CC[C@H](C)[C@@H](C/C=C(C)/C=C/C(=O)O)O2)O[C@H]1/C=C/C(C)=C/C(=O)O,< 10,,< 10,> 1730,< 10,,< 10,
CCCC[C@@]1(OCSC)CC[C@]2(CC[C@H](C)[C@@H](C/C=C(C)/C=C/[C@H](O)[C@@H](C)/C=C/C(=O)O)O2)O[C@H]1/C=C/C(C)=C/C(=O)O,< 10,9.6,20,801,> 80,,,
CCCC[C@@]1(OC(=O)CCC(=O)O)CC[C@]2(CC[C@H](C)[C@@H](C/C=C(C)/C=C/[C@H](O)[C@@H](O)/C=C/C(=O)O)O2)O[C@H]1/C=C/C(C)=C/C(=O)O [4-HYDROXY REVEROMYCIN A],10,1.01,20,21.7,> 80,< 10,< 10,< 10
CCCC[C@@]1(O)CC[C@]2(CC[C@H](C)[C@@H](C/C=C(C)/C=C/[C@H](O)[C@@H](C)/C=C/C(=O)O)O2)O[C@H]1/C=C/C(C)=C/C(=O)O,,11.5,,169,< 10,,,
CCCC[C@@]1(OC(=O)CCC(=O)O)CC[C@]2(CC[C@H](C)[C@@H](C/C=C(C)/C=C/[C@H](O)[C@@H](C)CO)O2)O[C@H]1/C=C/C(C)=C/C(=O)O,< 10,6.31,20,36.9,> 80,< 10,< 10,< 10
CCCC[C@@]1(OC(=O)CCC(=O)O)CC[C@]2(CC[C@H](C)[C@@H](CCO)O2)O[C@H]1/C=C/C(C)=C/C(=O)O,< 10,,< 10,> 2010,< 10,,< 10,
CCCC[C@@]1(OC(=O)CCC(=O)O)CC[C@]2(CC[C@H](C)[C@@H](C/C=C(\C)COC(=O)CCC(=O)O)O2)O[C@H]1/C=C/C(C)=C/C(=O)O,< 10,>15,< 10,> 1570,< 10,,< 10,
CCCC[C@@]1(OC(=O)CCC(=O)O)CC[C@]2(CC[C@H](C)[C@@H](C/C=C(C)/C=C/[C@H](O)[C@@H](C)/C=C/C(=O)OC)O2)O[C@H]1/C=C/C(C)=C/C(=O)O,> 80,2,> 80,313,> 80,< 10,20,
CCCC[C@@]1(OC(=O)CCC(=O)O)CC[C@]2(CC[C@H](C)[C@@H](C/C=C(C)/C=C/[C@H](OC)[C@@H](C)/C=C/C(=O)O)O2)O[C@H]1/C=C/C(C)=C/C(=O)O,,>15,,554,< 10,,< 10,
CC(/C=C/[C@H](O)[C@@H](C)/C=C/C(=O)O)=C\C[C@H]1O[C@@]2(CC[C@H](C)[C@H](/C=C/C(C)=C/C(=O)O)O2)CC[C@@H]1C [SPIROFUNGIN A],10,>30,20,1120,> 80,,< 10,
CCCC[C@@]1(OC(=O)CCC(=O)O)CC[C@]2(CC[C@H](C)[C@@H](C/C=C(\C)CO)O2)O[C@H]1/C=C/C(C)=C/C(=O)O,< 10,,< 10,> 1860,< 10,,< 10,
CCCC[C@@]1(OC(=O)CCC(=O)O)CC[C@]2(CC[C@H](C)[C@@H](C/C=C(C)/C=C/CO)O2)O[C@H]1/C=C/C(C)=C/C(=O)O,< 10,,< 10,996,< 10,,< 10,
"CCCC[C@@]1(OC(=O)CCC(=O)O)CC[C@]2(CC[C@H](C)[C@@H](C/C=C(C)/C=C/[C@H](O)[C@@H](C)CCC(=O)O)O2)O[C@H]1/C=C/C(C)=C/C(=O)O [2,3-DIHYDROREVEROMYCIN A]",20,0.22,50,17.5,> 80,,10,
CCCC[C@@]1(OC(=O)CCC(=O)O)CC[C@]2(CC[C@H](C)[C@@H](C/C=C(C)/C=C/[C@H](O)[C@@H](C)/C=C/C(=O)O)O2)O[C@H]1/C=C/C(C)=C/C(=O)OC,10,3.1,> 80,> 1480,> 80,< 10,< 10,
CCCC[C@]1([C@H](/C=C/C(C)=C/C(=O)O)OC(=O)CCC(=O)O)CC[C@]2(CC[C@H](C)[C@@H](C/C=C(C)/C=C/[C@H](O)[C@@H](C)/C=C/C(=O)O)O2)O1 [REVEROMYCIN B],,>15,,> 1510,< 10,,< 10,
CCCC[C@@]1(OC(=O)CCC(=O)OC)CC[C@]2(CC[C@H](C)[C@@H](C/C=C(C)/C=C/[C@H](O)[C@@H](C)/C=C/C(=O)O)O2)O[C@H]1/C=C/C(C)=C/C(=O)O,> 80,2.5,> 80,434,> 80,10,> 80,
CCCC[C@@]1(OC)CC[C@]2(CC[C@H](C)[C@@H](C/C=C(C)/C=C/[C@H](O)[C@@H](C)/C=C/C(=O)O)O2)O[C@H]1/C=C/C(C)=C/C(=O)O,20,,> 80,101,> 80,,,
CCCC[C@@]1(OC(=O)CCC(=O)O)CC[C@]2(CC[C@H](C)[C@@H](C/C=C(C)/C=C/[C@@H](O)[C@@H](C)/C=C/C(=O)O)O2)O[C@H]1/C=C/C(C)=C/C(=O)O [5-EPIREVEROMYCIN A],< 10,21.5,< 10,572,< 10,,< 10,
CC(/C=C/[C@H](O)[C@@H](C)/C=C/C(=O)O)=C\C[C@H]1O[C@]2(CC[C@H](C)[C@H](/C=C/C(C)=C/C(=O)O)O2)CC[C@@H]1C [SPIROFUNGIN B],< 10,>30,< 10,> 1990,< 10,,< 10,
